From patent publication US9539252B2, “Piperazine-substituted benzothiophene derivatives as antipsychotic agents” (OTSUKA PHARMACEUTICAL CO., LTD., priority 2011, dated 2017)

Test: Solubility in oil (sesame oil, benzyl benzoate), visual observation
Settings: oil or lipid, thermodynamic from solid

| Structure (SMILES) | solubility (benzyl benzoate) [mg/mL] | solubility (sesame oil) [mg/mL] |
| --- | --- | --- |
| CCCCCCCCCCCCCCCCCCNC(=O)OCN1C(=O)CCc2ccc(OCCCCN3CCN(c4cccc5sccc45)CC3)cc21 [Example 75, N-octadecylcarbamic acid 7-[4-(4-benzo[b]thiophen-4-ylpiperazin-1-yl)butoxy]-2-oxo-3,4-dihydro-2H-quinolin-1-ylmethyl ester] | > 100 | > 100 |
| O=C(NCc1ccco1)OCn1c(=O)ccc2ccc(OCCCCN3CCN(c4cccc5sccc45)CC3)cc21 [Example 110] | > 100 |  |
| CCCCCCCCCCCCCCCCC(=O)OCn1c(=O)ccc2ccc(OCCCCN3CCN(c4cccc5sccc45)CC3)cc21 [Example 108, heptadecanoic acid 7-[4-(4-benzo[b]thiophen-4-ylpiperazin-1-yl)butoxy]-2-oxo-2H-quinolin-1-ylmethyl ester] | > 100 |  |
| O=C(NOCc1ccccc1)OCN1C(=O)CCc2ccc(OCCCCN3CCN(c4cccc5sccc45)CC3)cc21 [Example 107, benzyloxycarbamic acid 7-[4-(4-benzo[b]thiophen-4-ylpiperazin-1-yl)butoxy]-2-oxo-3,4-dihydro-2H-quinolin-1-ylmethyl ester] | > 100 |  |
| CCCCCCOC(=O)OCOc1ccc2ccc(OCCCCN3CCN(c4cccc5sccc45)CC3)cc2n1 [Example 373, 7-[4-(4-benzo[b]thiophen-4-yl-piperazin-1-yl)-butoxy]-quinolin-2-yloxymethylhexyl carbonate] | > 100 | > 100 |
| CCCCCC(CCCCC)C(=O)OCn1c(=O)ccc2ccc(OCCCCN3CCN(c4cccc5sccc45)CC3)cc21 [Example 54, 2-pentylheptanoic acid 7-[4-(4-benzo[b]thiophen-4-ylpiperazin-1-yl)butoxy]-2-oxo-2H-quinolin-1-ylmethyl ester] | > 100 |  |
| CC(C)CCC(=O)OCn1c(=O)ccc2ccc(OCCCCN3CCN(c4cccc5sccc45)CC3)cc21 [Example 126, 4-methylpentanoic acid 7-[4-(4-benzo[b]thiophen-4-ylpiperazin-1-yl)butoxy]-2-oxo-2H-quinolin-1-ylmethyl ester] | > 100 |  |
| CCCCCCCCCC(=O)OCn1c(=O)ccc2ccc(OCCCCN3CCN(c4cccc5sccc45)CC3)cc21 [Example 59, decanoic acid 7-[4-(4-benzo[b]thiophen-4-ylpiperazin-1-yl)butoxy]-2-oxo-2H-quinolin-1-ylmethyl ester] | > 100 |  |
| O=C(OCN1C(=O)CCc2ccc(OCCCCN3CCN(c4cccc5sccc45)CC3)cc21)c1cccnc1 [Example 132, nicotinic acid 7-[4-(4-benzo[b]thiophen-4-ylpiperazin-1-yl)butoxy]-2-oxo-3,4-dihydro-2H-quinolin-1-ylmethyl ester] | > 100 |  |
| CCCCCCCC(=O)OCN1C(=O)CCc2ccc(OCCCCN3CCN(c4cccc5sccc45)CC3)cc21 [Example 24, octanoic acid 7-[4-(4-benzo[b]thiophen-4-ylpiperazin-1-yl)butoxy]-2-oxo-3,4-dihydro-2H-quinolin-1-ylmethyl ester] | > 100 |  |
| O=C(OCN1C(=O)CCc2ccc(OCCCCN3CCN(c4cccc5sccc45)CC3)cc21)OCC(F)(F)F [Example 147, carbonic acid 7-[4-(4-benzo[b]thiophen-4-ylpiperazin-1-yl)butoxy]-2-oxo-3,4-dihydro-2H-quinolin-1-ylmethyl ester 2,2,2-trifluoro-ethyl ester] | > 100 |  |
| CCCCCCCCCCCCCCCCCCN(C)C(=O)OCN1C(=O)CCc2ccc(OCCCCN3CCN(c4cccc5sccc45)CC3)cc21 [Example 79, N-methyl-N-octadecylcarbamic acid 7-[4-(4-benzo[b]thiophen-4-ylpiperazin-1-yl)butoxy]-2-oxo-3,4-dihydro-2H-quinolin-1-ylmethyl ester] | > 100 | > 100 |
| CCCC(=O)OCn1c(=O)ccc2ccc(OCCCCN3CCN(c4cccc5sccc45)CC3)cc21 [Example 20, butyric acid 7-[4-(4-benzo[b]thiophen-4-ylpiperazin-1-yl)butoxy]-2-oxo-2H-quinolin-1-ylmethyl ester] | > 100 |  |
| CC(C)CCC(=O)OCN1C(=O)CCc2ccc(OCCCCN3CCN(c4cccc5sccc45)CC3)cc21 [Example 105, 4-methylpentanoic acid 7-[4-(4-benzo[b]thiophen-4-ylpiperazin-1-yl)butoxy]-2-oxo-3,4-dihydro-2H-quinolin-1-ylmethyl ester] | > 100 |  |
| O=C(NCCC(F)(F)F)OCN1C(=O)CCc2ccc(OCCCCN3CCN(c4cccc5sccc45)CC3)cc21 [Example 93, N-(3,3,3-trifluoropropyl)carbamic acid 7-[4-(4-benzo[b]thiophen-4-ylpiperazin-1-yl)butoxy]-2-oxo-3,4-dihydro-2H-quinolin-1-ylmethyl ester] | > 100 |  |
| CCCCCCCCCCCCCCCNC(=O)OCN1C(=O)CCc2ccc(OCCCCN3CCN(c4cccc5sccc45)CC3)cc21 [Example 76, N-pentadecylcarbamic acid 7-[4-(4-benzo[b]thiophen-4-ylpiperazin-1-yl)butoxy]-2-oxo-3,4-dihydro-2H-quinolin-1-ylmethyl ester] | > 100 | > 100 |

| Structure (SMILES) | solubility (benzyl benzoate) [mg/mL] | solubility (sesame oil) [mg/mL] |
| --- | --- | --- |
| O=C(OCn1c(=O)ccc2ccc(OCCCCN3CCN(c4cccc5sccc45)CC3)cc21)c1ccc2occc2c1 [Example 137, benzofuran-5-carboxylic acid 7-[4-(4-benzo[b]thiophen-4-ylpiperazin-1-yl)butoxy]-2-oxo-2H-quinolin-1-ylmethyl ester] | > 100 |  |
| CCCCCCCC/C=C\CCCCCCCC(=O)OCn1c(=O)ccc2ccc(OCCCCN3CCN(c4cccc5sccc45)CC3)cc21 [Example 39, (Z)-octadec-9-enoic acid 7-[4-(4-benzo[b]thiophen-4-ylpiperazin-1-yl)butoxy]-2-oxo-2H-quinolin-1-ylmethyl ester] | > 100 |  |
| CCCCCCCCCCOC(=O)OCN1C(=O)CC(C)(C)c2ccc(OCCCCN3CCN(c4cccc5sccc45)CC3)cc21 [Example 156, carbonic acid 7-[4-(4-benzo[b]thiophen-4-ylpiperazin-1-yl)-butoxy]-4,4-dimethyl-2-oxo-3,4-dihydro-2H-quinolin-1-ylmethyl ester decyl ester] | > 100 | > 100 |
| CC(C)(C)C(=O)OCn1c(=O)ccc2ccc(OCCCCN3CCN(c4cccc5sccc45)CC3)cc21 [Example 18, 2,2-dimethylpropionic acid 7-[4-(4-benzo[b]thiophen-4-ylpiperazin-1-yl)butoxy]-2-oxo-2H-quinolin-1-ylmethyl ester] | > 100 |  |
| O=C(OCN1C(=O)CCc2ccc(OCCCCN3CCN(c4cccc5sccc45)CC3)cc21)C1CCCCCC1 [Example 106, cycloheptanecarboxylic acid 7-[4-(4-benzo[b]thiophen-4-ylpiperazin-1-yl)butoxy]-2-oxo-3,4-dihydro-2H-quinolin-1-ylmethyl ester] | > 100 |  |
| CCOC(=O)OCN1C(=O)CCc2ccc(OCCCCN3CCN(c4cccc5sccc45)CC3)cc21 [Example 49, carbonic acid 7-[4-(4-benzo[b]thiophen-4-ylpiperazin-1-yl)butoxy]-2-oxo-3,4-dihydro-2H-quinolin-1-ylmethyl ester ethyl ester] | > 100 |  |
| O=C(NCc1ccccn1)OCn1c(=O)ccc2ccc(OCCCCN3CCN(c4cccc5sccc45)CC3)cc21 [Example 113] | > 100 |  |
| CCN(CC)C(=O)Oc1ccc2ccc(OCCCCN3CCN(c4cccc5sccc45)CC3)cc2n1 [Example 382, 7-[4-(4-benzo[b]thiophen-4-yl-piperazin-1-yl)-butoxy]-quinolin-2-yl diethylcarbamate] | > 100 |  |
| CCCCCCCCCC(=O)OCN1C(=O)CCc2ccc(OCCCCN3CCN(c4cccc5sccc45)CC3)cc21 [Example 68, decanoic acid 7-[4-(4-benzo[b]thiophen-4-ylpiperazin-1-yl)butoxy]-2-oxo-3,4-dihydro-2H-quinolin-1-ylmethyl ester] | > 100 |  |
| CCCCCCCCCCCCOC(=O)OCn1c(=O)ccc2ccc(OCCCCN3CCN(c4cccc5sccc45)CC3)cc21 [Example 134, carbonic acid 7-[4-(4-benzo[b]thiophen-4-ylpiperazin-1-yl)butoxy]-2-oxo-2H-quinolin-1-ylmethyl ester dodecyl ester] | > 100 | > 100 |
| CONC(=O)OCn1c(=O)ccc2ccc(OCCCCN3CCN(c4cccc5sccc45)CC3)cc21 [Example 129, N-methoxycarbamic acid (7-{4-[4-(benzo[b]thiophen-4-yl)piperazin-1-yl]butoxy}-2-oxo-2H-quinolin-1-yl)methyl] | > 100 |  |
| CCCCCCCCCCCCCCCC(=O)OCN1C(=O)CCc2ccc(OCCCCN3CCN(c4cccc5sccc45)CC3)cc21 [Example 23, hexadecanoic acid 7-[4-(4-benzo[b]thiophen-4-ylpiperazin-1-yl)butoxy]-2-oxo-3,4-dihydro-2H-quinolin-1-ylmethyl ester] | > 100 |  |
| CCCCCCCC/C=C\CCCCCCCC(=O)OCN1C(=O)CCc2ccc(OCCCCN3CCN(c4cccc5sccc45)CC3)cc21 [Example 33, (Z)-octadec-9-enoic acid 7-[4-(4-benzo[b]thiophen-4-ylpiperazin-1-yl)butoxy]-2-oxo-3,4-dihydro-2H-quinolin-1-ylmethyl ester] | > 100 |  |
| CCCCCCCCOC(=O)OCn1c(=O)ccc2ccc(OCCCCN3CCN(c4cccc5sccc45)CC3)cc21 [Example 384, (7-(4-(4-(benzo[b]thiophen-4-yl)piperazin-1-yl)butoxy)-2-oxoquinolin-1(2H)-yl)methyl octyl carbonate] | > 100 | > 100 |
| CCN(CC)C(=O)OCN1C(=O)CCc2ccc(OCCCCN3CCN(c4cccc5sccc45)CC3)cc21 [Example 52, N,N-diethylcarbamic acid 7-[4-(4-benzo[b]thiophen-4-ylpiperazin-1-yl)butoxy]-2-oxo-3,4-dihydro-2H-quinolin-1-ylmethyl ester] | > 100 | > 100 |
| CC(C)COC(=O)OCn1c(=O)ccc2ccc(OCCCCN3CCN(c4cccc5sccc45)CC3)cc21 [Example 170, carbonic acid 7-[4-(4-benzo[b]thiophen-4-ylpiperazin-1-yl)butoxy]-2-oxo-2H-quinolin-1-ylmethyl ester isobutyl ester] | > 100 |  |
